These are literature values, as cited in patent US7858379B2, “Apparatus and method for determining the concentration of iodine-containing organic compounds in an aqueous solution” (Lynntech, Inc., priority 2007, dated 2010).

The structures appear in SMILES notation.

For data set [1] the following is noted: through the process of glomerular filtration.

In the case of `CC(=O)N(CC(O)CO)c1c(I)c(C(=O)NCC(O)CO)c(I)c(C(=O)NCC(O)CO)c1I` (stereo not shown) [Iohexol], the protein binding entry was “do not bind to protein”. Also, the excretion result in data set [1] is given as “totally excreted by the kidney”.
As for `CNC(=O)c1c(I)c(NC(C)=O)c(I)c(C(=O)O)c1I` [Iothalamate], the protein binding entry was “do not bind to protein”. Besides, in data set [1], the excretion result was “totally excreted by the kidney”.
